Experimental data reported in ChEMBL document CHEMBL1201862, “PubChem BioAssay data set” (2004).
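Compound exposure: 48 hours, 5 concentrations, 96-well plates. The concentration for 50% growth inhibition is given as GI50.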 Activity calls are given as the source filed them. Cut-off read from the data, not from the text of the source: active = GI50 up to about 1.1 µM and inactive = higher.

How the values were obtained:
Assay in all cases: DTP human tumour cell line panel, 48 h
HOP-92 = test system: HOP-92
NCI/ADR-RES = test system: NCI/ADR-RES
ACHN = test system: ACHN
OVCAR-5 = test system: OVCAR-5
TK-10 = test system: TK-10
OVCAR-8 = test system: OVCAR-8
MCF7 = test system: MCF7
K562 = test system: K562
UACC-257 = test system: UACC-257
HCC 2998 = test system: HCC 2998
SK-OV-3 = test system: SK-OV-3
RXF 393 = test system: RXF 393
PC-3 = test system: PC-3
SNB-19 = test system: SNB-19
A549 = test system: A549
HL-60 = test system: HL-60
RPMI-8226 = test system: RPMI-8226
MOLT-4 = test system: MOLT-4
SR = test system: SR
OVCAR-3 = test system: OVCAR-3

Row | SMILES | GI50 (HOP-92) | GI50 (NCI/ADR-RES) | GI50 (ACHN) | GI50 (OVCAR-5) | GI50 (TK-10) | GI50 (OVCAR-8) | GI50 (MCF7) | GI50 (K562) | GI50 (UACC-257) | GI50 (HCC 2998) | GI50 (SK-OV-3) | GI50 (RXF 393) | GI50 (PC-3) | GI50 (SNB-19) | GI50 (A549) | GI50 (HL-60) | GI50 (RPMI-8226) | GI50 (MOLT-4) | GI50 (SR) | GI50 (OVCAR-3)
1 | O=C1c2c(O)cccc2C(C2OC(CO)C(O)C(O)C2O)c2cc(CO)cc(O)c21 (stereo unspecified) | > 100 µM (inactive) | > 100 µM (inactive) | > 100 µM (inactive) | > 100 µM (inactive) | > 100 µM (inactive) | > 100 µM (inactive) | > 100 µM (inactive) | > 100 µM (inactive) | > 100 µM (inactive) | > 100 µM (inactive) | > 100 µM (inactive) | > 100 µM (inactive) | > 100 µM (inactive) | > 100 µM (inactive) | > 100 µM (inactive) | > 100 µM (inactive) | > 100 µM (inactive) | > 100 µM (inactive) | – | –
2 | O=C(O)CCC(=O)c1ccc2sc3ccccc3c2c1 | – | > 100 µM (inactive) | > 100 µM (inactive) | > 100 µM (inactive) | 91.6 µM (inactive) | > 100 µM (inactive) | > 100 µM (inactive) | > 100 µM (inactive) | > 100 µM (inactive) | – | > 100 µM (inactive) | > 100 µM (inactive) | > 100 µM (inactive) | > 100 µM (inactive) | > 100 µM (inactive) | 15.8 µM (inactive) | > 100 µM (inactive) | > 100 µM (inactive) | > 100 µM (inactive) | > 100 µM (inactive)
3 | C=C1C(=O)O[C@H]2C[C@@H]1[C@@H](O)[C@H](O)[C@@H](C)CCCC(C)=CCC[C@@]2(C)O | 12.4 µM (inactive) | – | 14.6 µM (inactive) | 19.1 µM (inactive) | 14.9 µM (inactive) | > 10 µM (inactive) | 10.1 µM (inactive) | 5.55 µM (inactive) | 15.2 µM (inactive) | 25.3 µM (inactive) | 62.5 µM (inactive) | 22.7 µM (inactive) | 19.9 µM (inactive) | > 100 µM (inactive) | 35.1 µM (inactive) | 15.1 µM (inactive) | 5.05 µM (inactive) | 4.84 µM (inactive) | 39.7 µM (inactive) | 15.1 µM (inactive)
4 | CCCCCCCCOP(=O)(O)OP(=O)(O)OCC1OC(n2ccc(N)nc2=O)C(O)C1O (stereo unspecified) | > 100 µM (inactive) | > 100 µM (inactive) | > 100 µM (inactive) | > 100 µM (inactive) | > 100 µM (inactive) | > 100 µM (inactive) | > 100 µM (inactive) | > 100 µM (inactive) | > 100 µM (inactive) | > 100 µM (inactive) | > 100 µM (inactive) | > 100 µM (inactive) | > 100 µM (inactive) | > 100 µM (inactive) | > 100 µM (inactive) | > 100 µM (inactive) | > 100 µM (inactive) | > 100 µM (inactive) | – | > 100 µM (inactive)
5 | COC(=O)C1=C(OC(=O)/C(=C/c2ccccc2)c2ccc([N+](=O)[O-])cc2)C(C(=O)OC)[C@@]2(O)[C@@H](C(=O)OC)[C@H](C)C[C@@H]1[C@@H]2C(=O)OC (stereo partly specified) | > 100 µM (inactive) | > 100 µM (inactive) | > 100 µM (inactive) | > 100 µM (inactive) | > 100 µM (inactive) | > 100 µM (inactive) | > 100 µM (inactive) | > 100 µM (inactive) | > 100 µM (inactive) | > 100 µM (inactive) | > 100 µM (inactive) | 53 µM (inactive) | > 100 µM (inactive) | > 100 µM (inactive) | 76.2 µM (inactive) | 78 µM (inactive) | 3.71 µM (inactive) | 3.53 µM (inactive) | – | > 100 µM (inactive)
6 | CCCCn1cc(C(=O)O)c(=O)c2c3sccc3ccc21 | > 100 µM (inactive) | 19.9 µM (inactive) | > 100 µM (inactive) | > 100 µM (inactive) | > 100 µM (inactive) | > 100 µM (inactive) | > 100 µM (inactive) | > 100 µM (inactive) | > 100 µM (inactive) | > 100 µM (inactive) | > 100 µM (inactive) | > 100 µM (inactive) | > 100 µM (inactive) | > 100 µM (inactive) | > 100 µM (inactive) | 34.8 µM (inactive) | > 100 µM (inactive) | > 100 µM (inactive) | – | > 100 µM (inactive)
7 | O=C1Nc2ccccc2/C1=N/Nc1nc(-c2ccc(Cl)c(Cl)c2)cs1 | > 100 µM (inactive) | > 100 µM (inactive) | 87.1 µM (inactive) | > 100 µM (inactive) | 66.2 µM (inactive) | 47.4 µM (inactive) | 37.2 µM (inactive) | – | > 100 µM (inactive) | > 100 µM (inactive) | > 100 µM (inactive) | – | 24 µM (inactive) | > 100 µM (inactive) | > 100 µM (inactive) | 0.232 µM (active) | – | 16 µM (inactive) | – | 4.75 µM (inactive)
8 | Cc1ccc(/C=c2\c(=O)[nH]c3nc4ccccc4c(=O)n23)cc1 | 55.2 µM (inactive) | 39.4 µM (inactive) | > 100 µM (inactive) | > 100 µM (inactive) | > 100 µM (inactive) | 40.9 µM (inactive) | 39.8 µM (inactive) | – | 70 µM (inactive) | 25.4 µM (inactive) | > 100 µM (inactive) | 29.6 µM (inactive) | 55.5 µM (inactive) | 34.9 µM (inactive) | 94.4 µM (inactive) | 29.2 µM (inactive) | 22.9 µM (inactive) | 38.8 µM (inactive) | – | 32.8 µM (inactive)
9 | CC(C)C1=CC(=O)C(C)(C2C(O)CC3(C)C4CC=C5C(CCC(OC6OC(CO)C(O)C(O)C6OC6OC(C)C(O)C(O)C6O)C5(C)C)C4(C)C(=O)CC23C)O1 (stereo unspecified) | > 100 µM (inactive) | > 100 µM (inactive) | > 100 µM (inactive) | > 100 µM (inactive) | – | > 100 µM (inactive) | > 100 µM (inactive) | > 100 µM (inactive) | > 100 µM (inactive) | > 100 µM (inactive) | > 100 µM (inactive) | > 100 µM (inactive) | > 100 µM (inactive) | > 100 µM (inactive) | > 100 µM (inactive) | – | > 100 µM (inactive) | > 100 µM (inactive) | – | > 100 µM (inactive)
10 | Oc1cc(Cc2ccccc2)c(Cc2ccccc2)cc1O | > 10 µM (inactive) | > 10 µM (inactive) | > 10 µM (inactive) | > 10 µM (inactive) | – | > 10 µM (inactive) | > 10 µM (inactive) | > 10 µM (inactive) | > 10 µM (inactive) | > 10 µM (inactive) | > 10 µM (inactive) | > 10 µM (inactive) | > 10 µM (inactive) | > 10 µM (inactive) | > 10 µM (inactive) | > 10 µM (inactive) | > 10 µM (inactive) | > 10 µM (inactive) | – | > 10 µM (inactive)
11 | COc1cc2c(cc1OC)-c1cc3cc(OC)c(OC)cc3c(C)[n+]1CC2.O=C([O-])CS(=O)(=O)O | 95.9 µM (inactive) | > 100 µM (inactive) | > 100 µM (inactive) | > 100 µM (inactive) | > 100 µM (inactive) | > 100 µM (inactive) | 46.3 µM (inactive) | – | 15.8 µM (inactive) | 19.3 µM (inactive) | 79.1 µM (inactive) | > 100 µM (inactive) | 15.9 µM (inactive) | 41.7 µM (inactive) | > 100 µM (inactive) | > 100 µM (inactive) | > 100 µM (inactive) | 9.51 µM (inactive) | – | 29.1 µM (inactive)
12 | O=[N+]([O-])/C=C/c1cccc(F)c1 | 11.6 µM (inactive) | 13.1 µM (inactive) | 2.54 µM (inactive) | – | 3.82 µM (inactive) | 11.7 µM (inactive) | 1.05 µM (active) | – | 3.79 µM (inactive) | 12 µM (inactive) | 14.3 µM (inactive) | 2.02 µM (inactive) | 3.01 µM (inactive) | 11.7 µM (inactive) | 4.16 µM (inactive) | – | 1.48 µM (inactive) | – | – | 2.39 µM (inactive)
13 | O=C(O)C(Cc1c[nH]c2ccccc12)N1C(=O)c2ccccc2C1=O (stereo unspecified) | 0.785 µM (active) | > 100 µM (inactive) | > 100 µM (inactive) | > 100 µM (inactive) | > 100 µM (inactive) | 7.21 µM (inactive) | > 100 µM (inactive) | – | > 100 µM (inactive) | > 100 µM (inactive) | > 100 µM (inactive) | > 100 µM (inactive) | > 100 µM (inactive) | > 100 µM (inactive) | > 100 µM (inactive) | – | > 100 µM (inactive) | – | – | > 100 µM (inactive)
14 | CC(=O)N(C(=O)CC(=O)N1N=C(c2ccccc2)C(/N=N/c2ccccc2[N+](=O)[O-])C1=O)c1ccc(Cl)cc1 (stereo unspecified) | > 10 µM (inactive) | > 10 µM (inactive) | > 10 µM (inactive) | > 10 µM (inactive) | > 10 µM (inactive) | > 10 µM (inactive) | > 10 µM (inactive) | > 10 µM (inactive) | > 10 µM (inactive) | > 10 µM (inactive) | > 10 µM (inactive) | > 10 µM (inactive) | > 10 µM (inactive) | > 10 µM (inactive) | > 10 µM (inactive) | > 10 µM (inactive) | > 10 µM (inactive) | > 10 µM (inactive) | – | > 10 µM (inactive)
15 | CC(=O)C1C(=O)C(=O)N(c2ccc([N+](=O)[O-])cc2Cl)C1=O (stereo unspecified) | 56.6 µM (inactive) | > 100 µM (inactive) | > 100 µM (inactive) | > 100 µM (inactive) | > 100 µM (inactive) | > 100 µM (inactive) | > 100 µM (inactive) | – | > 100 µM (inactive) | > 100 µM (inactive) | > 100 µM (inactive) | 97.9 µM (inactive) | 82.2 µM (inactive) | > 100 µM (inactive) | > 100 µM (inactive) | 93.1 µM (inactive) | – | 45.6 µM (inactive) | – | 94.2 µM (inactive)
